The conditions of data set [1]: co-administering Rifampicin (P-glycoprotein inducer); cited from earlier work.
The conditions of data set [2]: human, in vivo.
Procedure: Plasma samples from 19 patients were tested to investigate the coagulation pathway activity using the clottability test (CCT and TFT) and D-dimer test. These patients were receiving various anticoagulant drugs, such as rivaroxaban, apixaban, edoxaban, dabigatran, or argatroban, and the drug concentrations of each individual were determined. The aim of the study was to examine the activity of the coagulation pathway by means of both, the clottability test and D-dimer test in relation to the determined drug concentration in the plasma.
Data set [3] deals with fibrinogen and fibrin-derivatives. Briefly: CCT before and after anticoagulant in healthy volunteers. The format is in vivo, human. Particulars: 6 healthy volunteers; for CCT average after treatment: 3 hrs after last intake, rivaroxaban 15 mg twice daily 2.5 days, apixaban 10 mg twice daily 3.5 days; for CCT average before treatment: just before anticoagulant intake; for difference in CCT after vs before treatment: not statistical significant. The protocol: The skilled person is aware of how to perform the CCT test. Thus, as an example, Multifibren-U from Siemens and/or HemoslL Fibrinogen-C from IL/Werfen can be used. Moreover, it is known that the CCT test can show a higher fibrinogen concentration than the actual concentration due to enhanced clotting efficiency by the pro-coagulable factors due to the thrombin activity. […] In such study, rivaroxaban study was performed on 6 healthy volunteers, with ages between 18-50 years. They fulfilled the criteria of normal vital signs and lab screening tests for infection, hematology and coagulation, and had no abnormalities at physical examination. They were given 15 mg rivaroxaban twice daily for 2.5 days. The dosage of twice-daily 15 mg was chosen as it is the highest approved dosage for the initial treatment of acute venous thromboembolism (VTE). The apixaban study was performed on another 6 healthy volunteers, with the same health profile requirements as rivaroxaban study. These 6 volunteers were given 10 mg apixaban twice daily for 3.5 days. Blood samples were drawn just before anticoagulants intake and 3 hrs after the last intake. Measurement of fibrinogen was in duplicate.

Another data set deals with coagulation pathway. Briefly: Clottability test (CCT minus TFT) in plasma of patients on anticoagulants, clinical study C. In kind it is in vivo, human. The following applies: individual patient plasma, single time point, on anticoagulant. On the procedure: For determination of the clottability of blood, combined clottability assays were performed using a (a) clot-based and (b) enzyme-based fibrinogen test. The information provided by the assay is whether the blood is normal-clottable, hyperclottable, or hypoclottable by measuring fibrinogen concentration in blood plasma.
To estimate the clotting dynamics, […]. Thus, clottability is determined by […] (clottability=CCT−TFT). Exemplary, high values after subtraction of the obtained concentrations of the tests indicate high amounts of pro-coagulable factors and thus increased thrombin activity. Therefore, the greater the in vivo thrombin activation, the higher the obtained values from the clottability test. This leads to the finding that high values relate to an increased clottability.
The skilled person is aware of how to perform the CCT test. Thus, as an example, Multifibren-U from Siemens and/or HemoslL Fibrinogen-C from IL/Werfen can be used. Moreover, it is known that the CCT test can show a higher fibrinogen concentration than the actual concentration due to enhanced clotting efficiency by the pro-coagulable factors due to the thrombin activity. […]

Data set [4] has as its system AECOPD patients. Briefly: Pulmonary function in AECOPD patients. The format is in vivo, human. The text has this:
(§1) This is again another example how anticoagulant treatment reduces pathological in vivo thrombin generation with the concomitant reduction of fibrin-derivatives detectable by CCT. This example is a highly prevalent (>10%) progressive chronic disease, which has strong clinical manifestations of immune and coagulation systems. Chronic obstructive pulmonary disease (COPD) is an inflammatory lung disease that affects respiratory function with concomitant high thrombosis risk. In this example, study subjects were the 70 patients diagnosed with COPD and developed acute exacerbation form of COPD (AECOPD). On top of the standard AECOPD treatments e.g. anti-infection, bronchodilation, phlegm elimination, and oxygen treatment, etc, 32 of these AECOPD patients received no additional treatment and the other 38 of them were treated with low molecular weight heparin calcium (LMWH, 4100 IU anti-FXa/injection every 12 hrs, for 10 days).
(§2) Treatment efficacy was evaluated based on several parameters: pulmonary function, blood gas analysis and coagulation parameters. All this information were obtained before and after the LMWH anticoagulant treatment, the same for the control group. The pulmonary function was measured with several methods, such as FEV1 (measurement of forced expiratory volume in 1 sec after bronchodilator was inhaled) and FVC (forced vital capacity, and the ratio of FEV/FVC in % as clinical signs of respiratory performance). Blood gas analysis was obtained by measuring oxygen saturation of blood (SO2), partial pressure of oxygen (PO2) and partial pressure of carbon dioxide (PCO2). Several blood coagulation parameters were measured; they are CCT, DD, PT-INR.

For another data set, the system named is D-dimer. Nature of the data set: DD in AECOPD patients. The format is in vivo, human.
Source text: as §1
(§3) Treatment efficacy was evaluated based on several parameters: pulmonary function, blood gas analysis and coagulation parameters. […] The pulmonary function was measured with several methods, such as FEV1 (measurement of forced expiratory volume in 1 sec after bronchodilator was inhaled) and FVC (forced vital capacity, and the ratio of FEV/FVC in % as clinical signs of respiratory performance). […] Several blood coagulation parameters were measured; they are CCT, DD, PT-INR.

In a further data set the test system is coagulation system. Briefly: PT and INR in AECOPD patients. The format is in vivo, human.
Source text: as §1, §2

Data set [5] relates to AECOPD patients. Briefly: Blood gas analysis in AECOPD patients. Particulars: for PCO2 / SO2: AECOPD. The format is in vivo, human.
Source text: as §1, §2

Data set [6] relates to fibrinogen and fibrin-derivatives. Nature of the data set: CCT in AECOPD patients. The format is in vivo, human.
Source text: as §1, §3

In data set [7] the test system is patients with acute cerebral infarction (ACI). Briefly: Neurological assessment (NIHSS) in acute cerebral infarction patients. The following applies: ACI patients n=35, 2 weeks, plus aspirin 100 mg/day. In kind it is in vivo, human. On the procedure: (§4) Seventy patients who had complete clinical record and were diagnosed with acute cerebral infarction (ACI), either validated by CT or MRI, were included into this study. They have to be the first time patients of ACI and the disease onset should be shorter than 72 hours, and the cause of the cerebral infarction was cardiac origin, and they were without abnormal renal function, without bleeding history and hemostatic abnormality. These 70 patients were divided into 2 groups, 35 in control group and the other 35 in observational group. The control group patients were treated with rivaroxaban (anticoagulant), while observational group patients were treated combined rivaroxaban and sodium ozagrel (anti-platelet). Sodium ozagrel inhibits platelet activation and aggregation through specific inhibition of thromboxane (TX) synthetase. Due to the inhibitory effect of ozagrel on platelet activation, platelets cease to become the main lipid surface of thrombin generation. Beside standard treatment such as enriched oxygen supply, etc, all 70 patients were treated with aspirin 100 mg/tablet/day. Additionally, the control and observational groups were given rivaroxaban 15 mg/tablet/day. On top of rivaroxaban, the observational group received intravenously and daily 80 mg of ozagrel sodium in 500 mL glucose (5%) solution. Everyone was treated for 2 weeks. Both groups have very similar age mean and range (40-70 years). After 2 weeks of treatment, clinical efficacy (neurological assessments), coagulation lab tests (only CCT is shown) and GCS scores of the two groups were compared. Neurological […] according to NIH stroke scale (NIHSS). When NIHSS score reduces ≥90%, the disability classification is grade 0, and the treatment is highly efficacious. When NIHSS score reduces to between 46% and 89%, the disability classification is grade 1 to 3, the treatment is considered efficacious. The treatment is no efficacious, when the score is below 46%.

For a further data set, the system named is Fibrin(ogen). Nature of the data set: CCT in acute cerebral infarction patients. In kind it is in vivo, human. Particulars: ACI patients. On the procedure:
as §4

In data set [8] the test system is patients with acute cerebral infarction (ACI). Nature of the data set: Glasgow coma score (GCS) in acute cerebral infarction patients. In kind it is in vivo, human. On the procedure: Seventy patients who had complete clinical record and were diagnosed with acute cerebral infarction (ACI), either validated by CT or MRI, were included into this study. They have to be the first time patients of ACI and the disease onset should be shorter than 72 hours, and the cause of the cerebral infarction was cardiac origin, and they were without abnormal renal function, without bleeding history and hemostatic abnormality. These 70 patients were divided into 2 groups, 35 in control group and the other 35 in observational group. The control group patients were treated with rivaroxaban (anticoagulant), while observational group patients were treated combined rivaroxaban and sodium ozagrel (anti-platelet). Sodium ozagrel inhibits platelet activation and aggregation through specific inhibition of thromboxane (TX) synthetase. Due to the inhibitory effect of ozagrel on platelet activation, platelets cease to become the main lipid surface of thrombin generation. Beside standard treatment such as enriched oxygen supply, etc, all 70 patients were treated with aspirin 100 mg/tablet/day. Additionally, the control and observational groups were given rivaroxaban 15 mg/tablet/day. On top of rivaroxaban, the observational group received intravenously and daily 80 mg of ozagrel sodium in 500 mL glucose (5%) solution. Everyone was treated for 2 weeks. Both groups have very similar age mean and range (40-70 years). The coma assessment was carried out before and after treatment on all subjects, based on Glasgow coma score (GCS) scoring system, which has 15 as full score. The degree of coma is lighter and is reflected with higher score. The recovery based on GCS is summarized in Table 4, together with CCT results.

Where “and” joins values, the source holds several entries; their conditions need not be identical. Identical values can stand only once.

As for `[H]/N=C(/N)c1ccc(NCc2nc3cc(C(=O)N(CCC(=O)O)c4ccccn4)ccc3n2C)cc1` [dabigatran], in [1], the “decrease of maximum plasma concentration of dabigatran” value is on record as “approximately 67%”.

As for `CC1CNc2c(cccc2S(=O)(=O)N[C@@H](CCCNC(=N)N)C(=O)N2CC[C@@H](C)C[C@@H]2C(=O)O)C1` (stereo partly drawn) [argatroban], the PK profile result in data set [2] is recorded as “bottom”.

`COc1ccc(-n2nc(C(N)=O)c3c2C(=O)N(c2ccc(N4CCCCC4=O)cc2)CC3)cc1` [apixaban]: in data set [3], the “CCT average after treatment” value is 2.38, the “CCT average before treatment” value is 2.56 and the “difference in CCT after vs before treatment” value is −0.18. Further, the Clottability test in the data set on coagulation pathway is > 1.5 g/L and 2.7 g/L and 0.8 g/L and 1.8 g/L.

“low molecular weight heparin calcium [LMWH]”: the FEV1 with AECOPD patients [4] (after treatment) turned out to be 1.89 L; in the data set with AECOPD patients [4] (before treatment) it was 1.36 L. Also, the FEV1/FVC is 78.4% in the data set on AECOPD patients [4] (after treatment) and 62.3% with AECOPD patients [4] (before treatment). For the same compound, the DD worked out at 237.4 µg/L in the data set on D-dimer (after treatment) and 482.8 µg/L in the data set on D-dimer (before treatment). Moreover, the INR with coagulation system (after treatment) was 1.36; in the data set with coagulation system (before treatment), 0.87. Further, the PT in the data set on coagulation system (after treatment) amounted to 13.7; in the data set with coagulation system (before treatment) it was 9.6. The PO2 with AECOPD patients [5] (AECOPD patients n=38, after 10 days LMWH plus standard treatment) turned out to be 78.4 mmHg; in the data set on AECOPD patients [5] (AECOPD patients n=38, before treatment), 71.5 mmHg. Besides, the values for the PCO2 in the data set with AECOPD patients [5] (after treatment) and with AECOPD patients [5] (before treatment) were 41.9 mmHg and 52.2 mmHg, respectively. The results for the SO2 with AECOPD patients [5] (after treatment) and in the data set with AECOPD patients [5] (before treatment) were 98.6% and 90.8%, respectively. Further, the values for the CCT in data set [6] (after treatment) and in [6] (before treatment) were 2.16 and 3.97, respectively.

With `O=C(NC[C@H]1CN(c2ccc(N3CCOCC3=O)cc2)C(=O)O1)c1ccc(Cl)s1` [rivaroxaban], in [3], the “CCT average after treatment” value is listed as 2.64, the “CCT average before treatment” value worked out at 2.75 and the “difference in CCT after vs before treatment” value is given as −0.11. Moreover, the Clottability test with coagulation pathway is > 1.5 g/L and 1.7 g/L and -0.5 g/L and 0.6 g/L and 2 g/L. Further, in [7], the “efficacious (NIHSS reduction 46% to 89%), number of patients” value is 8; the “efficacious (NIHSS), share of patients” value is “(22.9%)”; the “highly efficacious (NIHSS score reduces ≥90%), number of patients” value was determined as 16; the “highly efficacious (NIHSS), share of patients” value is “(45.7%)”. In [7], the “non-efficacious (NIHSS below 46%), number of patients” value came to 11; the “non-efficacious (NIHSS), share of patients” value is recorded as “(31.4%)”; the “total efficacious (NIHSS), number of patients” value amounted to 24; the “total efficacious (NIHSS), share of patients” value came out at 68.6%. Further, the “Fibrin(ogen) CCT” value with Fibrin(ogen) (T0 before treatment) is listed as 3.93 ± 1.49. In the data set with Fibrin(ogen) (T1 after 2 weeks of treatment), the “Fibrin(ogen) CCT” value is listed as 3.15 ± 1.12. Besides, the “Fibrin(ogen) CCT, difference in mean” value with Fibrin(ogen) (T1 vs T0) was −0.78. The GCS score in [8] (T0 before treatment) was found to be 6.8 ± 1.11. Besides, in data set [8] (T1 after 2 weeks of treatment), the GCS score is reported as 9.07 ± 1.92. Further, in data set [8] (T1 vs T0), the “GCS score, difference in mean” value is recorded as 2.27.

Values taken from patent publication US20240304334A1, “CLOTTABILITY-BASED PERSONALIZED TREATMENT (CPT) SYSTEM” (priority 2021, published 2024).
